Source: patent US10328077B2 (CELGENE CORPORATION, priority 2016, dated 2019)
Where two headings read alike, the source gives them in different places.

Experiments:
[1] = Exploratory toxicity study in dogs; format: in vivo, Beagle dogs
[2] = system: LXFS 573 SCLC patient-derived xenograft; assay: LXFS 573 SCLC PDX model (monotherapy); format: in vivo, mice; conditions: for % TGI / TGI: Day 28
CYP3A4 = CYP3A4 (Homo sapiens (Human), UniProt P08684); assay: CYP inhibition in pooled human liver microsomes, CYP3A4; format: in vitro ADME
Sequence of CYP3A4 (P08684 whole entry): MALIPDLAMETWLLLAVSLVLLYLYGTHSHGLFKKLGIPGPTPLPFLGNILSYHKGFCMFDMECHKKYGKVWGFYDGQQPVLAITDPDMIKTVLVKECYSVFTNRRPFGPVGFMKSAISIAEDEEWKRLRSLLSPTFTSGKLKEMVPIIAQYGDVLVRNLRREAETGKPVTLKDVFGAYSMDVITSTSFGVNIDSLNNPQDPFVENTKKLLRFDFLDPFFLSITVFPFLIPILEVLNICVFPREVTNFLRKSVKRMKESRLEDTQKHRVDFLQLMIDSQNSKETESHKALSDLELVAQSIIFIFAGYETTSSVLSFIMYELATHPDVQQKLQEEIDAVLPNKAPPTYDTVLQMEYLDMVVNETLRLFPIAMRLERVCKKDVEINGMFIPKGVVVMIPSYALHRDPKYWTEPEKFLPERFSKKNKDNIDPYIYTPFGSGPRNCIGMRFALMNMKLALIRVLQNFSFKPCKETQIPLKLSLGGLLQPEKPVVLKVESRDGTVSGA

[3] = Beagle, dog, in vivo, po
[4] = system: GA0087 gastric NEC patient-derived xenograft; format: in vivo
[5] = system: gene expression in MKL-1 and MS-1 hMCC cell lines; assay: RNA-seq modulation of gene expression in cultured hMCC cells; format: cell-based, human; conditions: 10 and 100 nM
Experimental: The modulation of gene expression by Compund A for a panel of human genes was determined by culturing MKL-1 or MS-1 cells (Sigma-Aldrich, St. Louis, Mo.) for three days in the presence of 0, 10, or 100 nM Compund A and extracting total RNA for assessment by RNA-seq.
Libraries were sequenced on an Illumina NextSeq® 500 System (Illumina, San Diego, Calif.) using 75 base paired-end RNA sequencing. Sequenced reads were mapped to the hg19 human genome build and differential expression was determined by analysis of variance across all replicates relative to the vehicle control.
Sequenced reads were mapped to the hg19 human genome build using the Spliced Transcripts Alignment to a Reference (STAR) software tool (©Alexander Dobin, 2009-2016) and transcript counts were normalized using the Empirical Analysis of Digital Gene Expression Data in R (edgeR) and Differential gene expression analysis based on the negative binomial distribution (DESeq2) software tools (©Bioconductor, 2003-2017). Differential expression was determined by analysis of variance across all replicates relative to the vehicle control.

CYP3A4 mRNA = assay: CYP induction in cryopreserved human hepatocytes, CYP3A4; format: in vitro ADME; conditions: 0.03 to 10 μM, up to 3 days
[6] = 4-week toxicity study with 4-week recovery in mice (incl. TK)
MKL-1 hMCC xenograft = format: in vivo; conditions: 5 mg/kg PO 5 on/2 off
[7] = Exploratory toxicity study in mice; format: in vivo, CD-1 mice; conditions: for reduction in neutrophil counts: 60 mg/kg/dose QOD
Source text: Additional animals were included for TK evaluation.

LNCaP cells = assay: LNCaP cell proliferation with DHT and irradiation; format: cell-based, human; conditions: 10 nM DHT + 100 nM Compound A + 2Gy irradiation vs DHT + irradiation or DHT + Compound A, 220 hours
Experimental: LNCaP cells are androgen-sensitive human prostate adenocarcinoma cells. […] The proliferation of the LNCap cells was monitored for 220 hours.

[8] = system: Salmonella typhimurium TA98 and TA100 strains; assay: Bacterial reverse mutation assay; conditions: up to 500 μg/mL, presence and absence of S9
in vivo = conditions: Crl:CD1(ICR), mouse, plasma, po, 15 mg/kg
[9] = Metabolism in cryopreserved primary hepatocytes; format: in vitro ADME; conditions: male mouse, rat, dog, monkey; mixed gender human
[10] = system: LXFS 2156 SCLC patient-derived xenograft; assay: LXFS 2156 SCLC PDX model; format: in vivo, mice; conditions: 5 mg base/kg oral QD×23
[11] = Hemodynamic and ECG parameters in anesthetized guinea pigs; format: in vivo, Dunkin Hartley guinea pigs; conditions: for concentration at 10 min: male, Dunkin Hartley, plasma, read-out: mean plasma concentration at end of infusion
Source text: Animals were monitored throughout the experiment.

[12] = Day 1, 5 mg base/kg/dose oral, 5 days on/2 days off, F
[13] = Day 1, 5 mg base/kg/dose oral, 5 days on/2 days off, M
[14] = Day 1, 15 mg base/kg/dose oral, 5 days on/2 days off, M
[15] = Day 1, 25 mg base/kg/dose oral, QODx3/week, F
[16] = Day 1, 25 mg base/kg/dose oral, QODx3/week, M
[17] = Day 1, 45 mg base/kg/dose oral, 5 days on/2 days off, F
[18] = Day 1, 45 mg base/kg/dose oral, 5 days on/2 days off, M
[19] = Day 26, 5 mg base/kg/dose oral, 5 days on/2 days off, F
[20] = Day 26, 5 mg base/kg/dose oral, 5 days on/2 days off, M
[21] = Day 26, 15 mg base/kg/dose oral, 5 days on/2 days off, F
[22] = Day 26, 25 mg base/kg/dose oral, QODx3/week, F
[23] = Day 26, 25 mg base/kg/dose oral, QODx3/week, M
[24] = Day 26, 45 mg base/kg/dose oral, 5 days on/2 days off, F
[25] = Day 26, 45 mg base/kg/dose oral, 5 days on/2 days off, M

COc1ccc(-c2c(-c3ccc(C#N)c(F)c3)nc(N3CCC(N)CC3)n(C)c2=O)cc1F [Compound A, 4-[2-(4-amino-piperidin-1-yl)-5-(3-fluoro-4-methoxy-phenyl)-1-methyl-6-oxo-1,6-dihydro-pyrimidin-4-yl]-2-fluoro-benzonitrile]
platelet counts ([1]; 0.25 mg/kg/dose): no reduction in platelet counts | Compound A-related effects ([1]; 0.25 mg/kg/dose QOD): no Compound A-related effects | platelet counts ([1]; 0.5 mg/kg/dose (both schedules) and 1 mg/kg/dose, most dogs): below 25,000 /μL | body weight loss ([1]; one female, 0.5 mg/kg/day 5 days on/2 days off, sacrificed moribund Day 12): 10.8% | Median Tumor Volume Day 28 ([2]; 5 mg base/kg PO QDx28): 308.3 mm^3 | Median Tumor Volume Diff. (Day 28 - Day 0) ([2]; 5 mg base/kg PO QDx28): 199.9 mm^3 | % TGI ([2]; 5 mg base/kg PO QDx28): 78% | TGI ([2]; 5 mg base/kg oral): 78% | Median Tumor Volume Day 28 ([2]; 7.5 mg base/kg PO QDx28): 496.6 mm^3 | Median Tumor Volume Diff. (Day 28 - Day 0) ([2]; 7.5 mg base/kg PO QDx28): 383.4 mm^3 | Median Tumor Volume Day 28 ([2]; 10 mg base/kg PO QDx28): 376.8 mm^3 | Median Tumor Volume Diff. (Day 28 - Day 0) ([2]; 10 mg base/kg PO QDx28): 263.0 mm^3 | % TGI ([2]; 10 mg base/kg PO QDx28): 71% | TGI ([2]; 10 mg/kg oral): 71% | mean body weight loss ([2]; mouse, in vivo): ≤ 3% | IC50 (CYP3A4): > 50 µM | AUC0-96 ([3]; female): 127 ng·h/mL | Cmax ([3]; female): 5.77 ng/mL | AUC0-96 ([3]; female, 0.25 mg/kg): 272 ng·h/mL | Cmax ([3]; female, 0.25 mg/kg): 11.5 ng/mL | AUC0-96 ([3]; female, 0.5 mg/kg): 618 ng·h/mL | AUC0-96 ([3]; male): 114 ng·h/mL | Cmax ([3]; male): 5.81 ng/mL | AUC0-96 ([3]; male, 0.25 mg/kg): 302 ng·h/mL | Cmax ([3]; male, 0.25 mg/kg): 10.5 ng/mL | AUC0-96 ([3]; male, 0.5 mg/kg): 653 ng·h/mL | Median Tumor Volume Day 53 ([4]; 5 mg/kg PO QD x 53): 673.2 mm^3 | Median Tumor Volume Diff (Day 53 - Day 0) ([4]; 5 mg/kg PO QD x 53): 863.3 mm^3 | tolerability ([4]; 1.5 and 5 mg/kg oral QD): acceptably tolerated | downregulated genes with expression changes in both hMCC lines at both concentrations (of 4303) ([5]; 3 days, MKL-1 and MS-1): 17 | upregulated genes with expression changes in both hMCC lines at both concentrations (of 3803) ([5]; 3 days, MKL-1 and MS-1): 172 | ST18 and FREM2 gene expression change (upregulated) ([5]; both hMCC lines): at least 2 fold | increase in CYP3A4 mRNA over vehicle control (CYP3A4 mRNA): < 2 fold | AUC0-24 [6, 12]: 1500 ng·h/mL | Cmax [6, 12]: 201 ng/mL | AUC0-24 [6, 13]: 2270 ng·h/mL | Cmax [6, 13]: 230 ng/mL | AUC0-24 [6, 14]: 13000 ng·h/mL | Cmax [6, 14]: 1020 ng/mL | AUC0-24 [6, 15]: 20300 ng·h/mL | Cmax [6, 15]: 1830 ng/mL | AUC0-24 [6, 16]: 21900 ng·h/mL | Cmax [6, 16]: 1530 ng/mL | AUC0-24 [6, 17]: 36300 ng·h/mL | Cmax [6, 17]: 3570 ng/mL | AUC0-24 [6, 18]: 35200 ng·h/mL | Cmax [6, 18]: 3130 ng/mL | AUC0-24 [6, 19]: 2410 ng·h/mL | Cmax [6, 19]: 276 ng/mL | AUC0-24 [6, 20]: 2010 ng·h/mL | Cmax [6, 20]: 276 ng/mL | AUC0-24 [6, 21]: 8640 ng·h/mL | Cmax [6, 21]: 769 ng/mL | AUC0-24 [6, 22]: 17500 ng·h/mL | Cmax [6, 22]: 1740 ng/mL | AUC0-24 [6, 23]: 17800 ng·h/mL | Cmax [6, 23]: 1450 ng/mL | AUC0-24 [6, 24]: 26500 ng·h/mL | Cmax [6, 24]: 2130 ng/mL | AUC0-24 [6, 25]: 29000 ng·h/mL | Cmax [6, 25]: 2620 ng/mL | NOAEL ([6]; QD×5/week schedule): 5 mg base/kg/dose | STD10 ([6]; QD×5/week schedule): > 45 mg base/kg/dose | STD10 ([6]; QOD×3 weekly schedule): > 25 mg base/kg/dose | Median Tumor Volume Day 15 (MKL-1 hMCC xenograft): 880 mm^3 | Median Tumor Volume Diff (Day 15 - Day -3) (MKL-1 hMCC xenograft): 815 mm^3 | increase in platelets on Day 8 ([7]; 10 mg/kg/day 5 days on/2 days off, vs end of first dosing period): > 2 fold | reduction in neutrophil counts ([7]; females): 66% | reduction in neutrophil counts ([7]; males): 83% | increased spleen weights ([7]; 30 or 60 mg/kg/dose 5 days on/2 days off): up to 2 fold | greatest reduction in neutrophil counts ([7]; 5 days on/2 days off schedule, vs concurrent controls and pre-study values): approximately 90% | circulating platelets ([7]; all dose levels, end of study): reduced | LNCaP cell proliferation (LNCaP cells): significantly inhibits LNCaP cell proliferation | mutagenicity [8]: negative for mutagenicity | AUC(0-t) (in vivo; female): 9680 ng·h/mL | Cmax (in vivo; female): 850 ng/mL | AUC(0-t) (in vivo; male): 7960 ng·h/mL | Cmax (in vivo; male): 628 ng/mL | metabolic stability in hepatocytes [9]: greater in rat and dog followed by human and monkeys while being least stable in mouse hepatocytes | TGI [10]: −7% | maximum increase of QTcB interval vs vehicle ([11]; 10 mg base/kg IV): approximately 9% | maximum increase of QTcB interval vs vehicle ([11]; 15 mg base/kg IV): ~13% | maximum increase of QTcB interval vs vehicle ([11]; 20 mg base/kg IV): ~16% | maximum suppression of HR vs vehicle ([11]; 20 mg base/kg IV, 9 minutes into infusion): 19% | NOAEL for hemodynamic and ECG endpoints ([11]; IV): 10 mg base/kg | HR decrease at end of monitoring period ([11]; after 20 mg base/kg IV): 18% | QTcB interval increase at end of monitoring period ([11]; guinea pig, in vivo): 10% | concentration at 10 min ([11]; guinea pig, 5 mg base/kg IV): 1170 ng/mL | concentration at 10 min ([11]; guinea pig, 10 mg base/kg IV): 2360 ng/mL | concentration at 10 min ([11]; guinea pig, 15 mg base/kg IV): 4270 ng/mL | concentration at 10 min ([11]; guinea pig, 20 mg base/kg IV): 6710 ng/mL
